The target of data set [1] is T1, NaV1.7 (Homo sapiens, UniProt Q15858).
T1 construct: expressed in transfected cells; tetracycline-inducible, kept under hygromycin and blasticidin selection
The data set can be described thus: Whole cell patch clamp, internal block of NaV1.7 current (compound in internal solution). In kind it is cell-based. The settings on record: compound applied internally, 5 Hz stimulation, read-out: Nav1.7 Intracellular Inhibition; for inhibition at 10 µM: % inhibition at 10 μM test concentration; for inhibition at 3 µM: % inhibition at 3 μM test concentration. How it is done:
(§1) NaV1.7 was expressed upon induction with tetracycline. Cells were cultured in DMEM containing 10% dialyzed Fetal Bovine Serum (VWR, Radnor, Pa.), 1% Glutamax (VWR, Radnor, Pa.), 1% Penicillin-Streptomycin (VWR, Radnor, Pa.), 100 mg/L Hygromycin (Thermo Fisher Scientific, Waltham, Mass.) and 5 mg/L Blasticidin (Alfa Aesar, Haverhill, Mass.). Cells were grown and maintained at 37° C. in a humidified environment containing 10% CO2 in air. Cells were detached from the culture flask for passage and harvested using 0.05% Trypsin-EDTA (Thermo Fisher Scientific, Waltham, Mass.). To induce NaV1.7, cells were induced with tetracycline (0.1-1 μg/mL, IBI Scientific, Peosta, Iowa) the day before recording and plated onto 24-well plates. Cells were washed with DPBS (VWR, Radnor, Pa.), trypsinized and then triturated five times in 10 mL of growth media to break apart cell aggregates. For one 24-well plate, 2 mL of cell suspension was mixed with 23 mL of fresh growth media and 0.1-1 μg/mL tetracycline added. 1 ml of mixed media with cells was then added to each well of a 24-well plate, with a 12 mm coverslip already placed in the bottom of the well. Cells were then incubated in 37° C. and 10% CO2 overnight.
The intracellular solution contained the following (in mM) CsCl 135, NaCl 10, EGTA 10, HEPES 10, MgCl2 2, adjusted to pH 7.2 with CsOH. The external solution was a normal Ringer solution containing (in mM) NaCl 155, HEPES 10, glucose 10, KCl 3.5, CaCl2) 1.5, MgCl2 1 adjusted to pH 7.4 with NaOH. CsCl was from Alfa Aesar, Haverhill, Mass. All other chemicals were from Sigma-Aldrich, St. Louis, Mo. In order to test the degree of internal block by test compounds the compounds were dissolved in internal solution at the indicated test concentration. […] In order to test the degree of external block by test compounds the compounds were dissolved in external solution at the indicated test concentration.
18-24 hours after cells were induced with tetracycline, coverslips were placed into a chamber filled with Normal Ringer solution at room temperature and the chamber was placed on a microscope. Pipettes were pulled from borosilicate glass on a P97 puller (Sutter Instrument, Novato, Calif.) and were polished with a MF-830 Microforge (Narishige International USA, Inc, Amityville, N.Y.) to have a resistance of 1.5-2.5 MΩ when filled with CsCl internal solution at room temperature. Healthy cells (those that are round and translucent with no visible blemishes) were chosen for seal formation. A seal was formed between the pipette and the cell, and a brief pulse of suction was used to “break in” and establish the whole-cell configuration. The membrane potential was held at −100 mV before the voltage protocol begins. Only cells with series resistance between 1.5-5 MΩ were retained for analysis. The voltage protocol was as follows: Cells were held at −100 mV for 12 ms followed by a hyperpolarizing step to −105 mV for 12 ms to monitor the leak. Cells were then stepped back to −100 mV for 40 ms. Cells were then depolarized to −20 mV for 10 ms and then returned to −100 mV for 26 ms (the FIGURE).
Once the recording was started, the voltage protocol was run at 30 second intervals for 5 minutes to get a stable baseline. This was followed by four 30-second periods of 5 Hz stimulation of the same voltage protocol separated by 1 minute of rest which was then followed by 0.33 Hz stimulation after the last train. Currents were recorded using PatchMaster software with Heka EPC10 (HEKA Electronics, Lambrecht, Germany). Only cells with inward current amplitudes at −20 mV between 400 pA and 4 nA were accepted. In addition, cells having leak currents greater than 10% of their current amplitudes were discarded.
(§2) The data was plotted using the Patchmaster software (HEKA Electronics, Lambrecht, Germany) and was analyzed by plotting the minimum current during the voltage step to −20 mV (peak inward current) as a function of time. […]
For orientation: Patch clamp records ionic current or voltage across a cell membrane.

Data set [2] can be described thus: PAMPA membrane permeability assay. In kind it is in vitro ADME. The conditions noted are these: pH 7.4 buffer, GIT lipid, 4 hours incubation, 50 uM. How it is done:
The PAMPA assay (pION, Inc., Woburn Mass.) was used to determine the ability of compounds of the invention to cross an artificial lipid membrane by passive diffusion. Test compounds were dissolved in DMSO (10 mM) and diluted 200-fold in buffer (pION Inc., pH 7.4) to provide 50 uM stock solutions. Buffer (150 μL) was added to a UV blank plate and stock solutions (150 μL) were transferred to a UV reference plate. The blank and reference spectrum were read using a spectrophotometer. Stock solutions (200 μL) were added to the donor plate of the PAMPA sandwich plate and an accept plate painted with GIT lipid (pION Inc, 5 μL) was placed on top. Buffer (200 μL) was added to the acceptor plate and the PAMPA sandwich plate was incubated for 4 hours. Aliquots (150 μL) from the acceptor plate were added to a UV plate and read as acceptor spectrum. Aliquots (150 μL) of the donor solutions were added to a UV analysis plate and read as donor spectrum. The permeability coefficient of test compounds was calculated using PAMPA Explorer™ software (version 3.5.0.4) based on the AUC of the reference plate, the donor plate, and the acceptor plate.
A general note: PAMPA measures passive passage across an artificial lipid membrane.

Data set [3] concerns the target T1, NaV1.7. Nature of the data set: Whole cell patch clamp, external block of NaV1.7 current (compound in external solution). In kind it is cell-based. The conditions noted are these: % inhibition at 10 μM test concentration, compound applied externally for 5 minutes; read-out: Nav1.7 Extracellular Inhibition. How it is done:
as §1, with “For one 24-well plate, 2 mL of cell suspension was mixed with 23 mL of fresh growth media and 0.1-1 μg/mL tetracycline added. 1 ml of mixed media with cells was then added to each well of a 24-well plate, with a 12 mm coverslip already placed in the bottom of the well. Cells were then incubated in 37° C. and 10% CO2 overnight.” left out
Once the recording was started, the voltage protocol was run at 30 second intervals for 5 minutes to get a stable baseline. […] Currents were recorded using PatchMaster software with Heka EPC10 (HEKA Electronics, Lambrecht, Germany). […]
as §2

Structures can show the parent of a compound that is named as a salt.

T1 sequence (Q15858 whole entry): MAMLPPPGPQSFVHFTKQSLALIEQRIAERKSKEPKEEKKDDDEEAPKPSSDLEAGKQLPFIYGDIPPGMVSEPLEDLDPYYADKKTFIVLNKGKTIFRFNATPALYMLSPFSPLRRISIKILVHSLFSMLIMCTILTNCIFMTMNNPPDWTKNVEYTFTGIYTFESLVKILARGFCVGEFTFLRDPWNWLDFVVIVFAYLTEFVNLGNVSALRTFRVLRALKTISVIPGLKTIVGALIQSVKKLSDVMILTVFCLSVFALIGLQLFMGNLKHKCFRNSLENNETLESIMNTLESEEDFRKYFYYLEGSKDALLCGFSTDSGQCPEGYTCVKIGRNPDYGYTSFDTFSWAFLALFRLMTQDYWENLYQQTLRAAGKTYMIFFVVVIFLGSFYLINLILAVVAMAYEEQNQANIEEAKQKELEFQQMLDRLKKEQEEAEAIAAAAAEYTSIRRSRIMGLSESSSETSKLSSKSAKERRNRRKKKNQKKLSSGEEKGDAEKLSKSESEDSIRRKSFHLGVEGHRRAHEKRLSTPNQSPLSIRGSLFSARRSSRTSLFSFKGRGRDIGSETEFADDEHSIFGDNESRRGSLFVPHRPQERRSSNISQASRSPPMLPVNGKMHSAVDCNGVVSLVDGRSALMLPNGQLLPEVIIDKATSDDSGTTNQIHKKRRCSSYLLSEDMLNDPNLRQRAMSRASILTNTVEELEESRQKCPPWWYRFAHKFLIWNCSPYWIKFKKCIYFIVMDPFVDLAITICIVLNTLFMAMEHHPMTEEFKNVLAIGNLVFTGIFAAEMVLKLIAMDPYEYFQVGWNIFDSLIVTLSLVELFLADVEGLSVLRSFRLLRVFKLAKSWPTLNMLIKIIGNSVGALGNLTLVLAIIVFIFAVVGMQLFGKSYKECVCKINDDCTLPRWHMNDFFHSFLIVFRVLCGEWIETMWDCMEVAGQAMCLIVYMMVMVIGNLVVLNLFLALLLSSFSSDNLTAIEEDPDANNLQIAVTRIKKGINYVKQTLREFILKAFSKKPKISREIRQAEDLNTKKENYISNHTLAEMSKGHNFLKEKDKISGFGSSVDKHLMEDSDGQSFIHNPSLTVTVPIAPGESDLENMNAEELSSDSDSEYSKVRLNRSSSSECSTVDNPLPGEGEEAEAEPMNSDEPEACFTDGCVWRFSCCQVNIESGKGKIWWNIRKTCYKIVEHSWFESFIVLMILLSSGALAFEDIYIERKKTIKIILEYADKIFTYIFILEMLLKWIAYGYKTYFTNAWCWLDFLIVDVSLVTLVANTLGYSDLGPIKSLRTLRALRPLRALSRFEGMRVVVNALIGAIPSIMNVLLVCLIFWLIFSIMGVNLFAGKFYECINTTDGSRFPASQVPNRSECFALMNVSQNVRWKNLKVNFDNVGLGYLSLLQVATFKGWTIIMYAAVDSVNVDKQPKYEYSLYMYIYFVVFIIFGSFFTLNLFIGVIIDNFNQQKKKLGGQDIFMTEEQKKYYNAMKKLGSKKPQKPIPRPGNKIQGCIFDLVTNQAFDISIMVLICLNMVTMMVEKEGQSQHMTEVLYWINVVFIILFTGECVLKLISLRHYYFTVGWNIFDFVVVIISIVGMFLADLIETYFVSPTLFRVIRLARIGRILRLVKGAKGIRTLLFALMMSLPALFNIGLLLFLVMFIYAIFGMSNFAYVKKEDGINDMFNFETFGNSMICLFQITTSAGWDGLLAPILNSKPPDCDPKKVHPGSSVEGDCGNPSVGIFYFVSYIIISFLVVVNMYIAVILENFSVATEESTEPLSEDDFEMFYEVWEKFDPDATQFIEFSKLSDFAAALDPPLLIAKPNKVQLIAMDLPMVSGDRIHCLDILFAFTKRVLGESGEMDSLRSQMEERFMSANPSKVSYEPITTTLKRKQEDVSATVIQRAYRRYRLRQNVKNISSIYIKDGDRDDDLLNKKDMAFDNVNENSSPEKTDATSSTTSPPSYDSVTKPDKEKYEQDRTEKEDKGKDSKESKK

As to `CC[P+](CC)(CC)CC(=O)Nc1c(C)csc1C(=O)OC.[Br-]` [Compound 1A, triethyl(2-((2-(methoxycarbonyl)-4-methylthiophen-3-yl)amino)-2-oxoethyl) Phosphonium Bromide], the inhibition (commonly how much of the control response was suppressed) at 10 µM at NaV1.7 [1] was 40 to 70%. Further, the “PAMPA (10^−6 cm/s)” value in data set [2] was “+ (“+” (<0.1 10^−6 cm/s))”.

Take `COC(=O)c1scc(C)c1NC(=O)C[P+]1(Cc2ccccc2)CCCCC1.[Br-]` [Compound 8A, 1-benzyl-1-(2-((2-(methoxycarbonyl)-4-methylthiophen-3-yl)amino)-2-oxoethyl)phosphinan-1-ium Bromide]: the inhibition at 3 µM on NaV1.7 [1] lay within 70 to 90%. For the same compound, the “PAMPA (10^−6 cm/s)” value in data set [2] was “++ (“++” (0.1-2.0 10^−6 cm/s))”. Consider `COC(=O)c1scc(C)c1NC(=O)C[P+]1(Cc2ccccc2)CCCCC1` [Compound 8], for which the inhibition at 10 µM on NaV1.7 [3] is under 40%. With `CCC(C(=O)Nc1c(C)csc1C(=O)OC)[P+]1(Cc2ccccc2)CCCCC1` (stereo not drawn) [Compound 10A, 1-benzyl-1-(1-((2-(methoxycarbonyl)-4-methylthiophen-3-yl)amino)-1-oxobutan-2-yl)phosphinan-1-ium Formate], the inhibition at 3 µM on NaV1.7 [1] is over 90%. Also, in data set [2], the “PAMPA (10^−6 cm/s)” value is reported as “+++. (“+++” (2.0-10.010^−6 cm/s))”.

Turning to `CCCC[P+](CCCC)(CCCC)CC(=O)Nc1c(C)csc1C(=O)OC.[Br-]` [Compound 17A, tributyl(2-((2-(methoxycarbonyl)-4-methylthiophen-3-yl)amino)-2-oxoethyl) Phosphonium Bromide], the inhibition at 10 µM at NaV1.7 [1] lay within 70 to 95%. Moreover, the “PAMPA (10^−6 cm/s)” value in data set [2] was “+ (“+” (<0.1 10^−6 cm/s))”. In the case of `COC(=O)c1scc(C)c1NC(=O)C[P+](c1ccccc1)(c1ccccc1)c1ccccc1` [Compound 19A], the inhibition at 10 µM at NaV1.7 [1] was 70 to 95%. As to `CC[P+](CC)(CC)CC(=O)Nc1c(C)csc1C(=O)OC(C)(C)C.[Br-]` [Compound 21A], the inhibition at 3 µM on NaV1.7 [1] is 70 to 90%. Further, the “PAMPA (10^−6 cm/s)” value in data set [2] was “+ (“+” (<0.1 10^−6 cm/s))”.

Values taken from patent US11618761B2, “Phosphonium ion channel blockers and methods for use” (Nocion Therapeutics, Inc., priority 2019, dated 2023).
